Assay results reported in patent US9375530B2 (Allergan, Inc., priority 2007, dated 2016).
Read-outs that look alike come from different tables or passages of the source.

How the values were obtained:
kidney water channels = settings: as illustrated in FIG. 1
[1] = in vivo, cited from earlier work; for % Bioavailability: human
[2] = human, in vivo; cited from earlier work
[3] = in vivo; cited from earlier work

**Q.** With `NC(=O)CC[C@@H]1NC(=O)[C@H](Cc2ccccc2)NC(=O)[C@H](Cc2ccc(O)cc2)NC(=O)CCSSC[C@@H](C(=O)N2CCC[C@H]2C(=O)N[C@H](CCCN=C(N)N)C(=O)NCC(N)=O)NC(=O)[C@H](CC(N)=O)NC1=O` [desmopressin, 1-desamino-8-D-arginine vasopressin] as the compound, how does the “blood concentration sufficient to activate kidney water channels and induce an antidiuretic effect” value (kidney water channels) read?
**A.** about 0.8 pg/ml

**Q.** What about the “% Bioavailability” value ([1]; po) of the same compound?
**A.** 0.1-0.15%

**Q.** And the “% Bioavailability” value ([1]; sc)?
**A.** Subcutaneous (±90) %

**Q.** And the “ranges for peak blood levels” value ([1]; po)?
**A.** 10-20 fold

**Q.** What about the half life [2] of the same compound?
**A.** 1.5 to 2.0 h

**Q.** And the undesirable side-effects [3]?
**A.** high incidences of hyponatremia
